Source: ChEMBL document CHEMBL1138030, “Inhibitors of HCV NS5B polymerase: synthesis and structure-activity relationships of N-1-benzyl and N-1-[3-methylbutyl]-4-hydroxy-1,8-naphthyridon-3-yl benzothiadiazine analogs containing substituents on the aromatic ring” (Bioorg Med Chem Lett, 2006)

Legend:
[1] = biological target: T1, RNA-directed RNA polymerase (Hepacivirus hominis, UniProt O39930); assay: Inhibition of HCV 1a NS5B RNA polymerase; parameters: species or system Hepatitis C virus subtype 1a
T1 sequence (O39930 whole entry): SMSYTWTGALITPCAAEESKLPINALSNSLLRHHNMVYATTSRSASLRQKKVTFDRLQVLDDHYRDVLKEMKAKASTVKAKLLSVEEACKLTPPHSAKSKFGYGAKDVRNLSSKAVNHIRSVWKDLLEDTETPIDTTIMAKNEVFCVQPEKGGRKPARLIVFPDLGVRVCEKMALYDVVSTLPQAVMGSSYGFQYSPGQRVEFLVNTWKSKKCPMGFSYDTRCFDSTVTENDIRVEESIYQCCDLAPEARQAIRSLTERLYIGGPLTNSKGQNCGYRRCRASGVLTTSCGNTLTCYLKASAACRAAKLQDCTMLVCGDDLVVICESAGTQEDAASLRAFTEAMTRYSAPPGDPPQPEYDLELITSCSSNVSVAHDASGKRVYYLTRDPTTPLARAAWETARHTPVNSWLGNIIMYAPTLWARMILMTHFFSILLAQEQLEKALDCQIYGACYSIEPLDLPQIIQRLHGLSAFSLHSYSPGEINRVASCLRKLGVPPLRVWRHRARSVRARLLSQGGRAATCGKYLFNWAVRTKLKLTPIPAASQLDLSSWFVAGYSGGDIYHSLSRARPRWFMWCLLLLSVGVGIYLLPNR

[2] = biological target: T1, RNA-directed RNA polymerase; assay: Inhibition of HCV 1b NS5B RNA polymerase; parameters: species or system Hepatitis C virus subtype 1b
[3] = Protein binding in plasma; type: ADME, cell-free; conditions: read-out: PPB
Hepatitis C virus [4] = assay: Inhibition of HCV 1b replication in presence of 5% fetal calf serum; type: functional, organism-based, Hepatitis C virus subtype 1b
Hepatitis C virus [5] = assay: Inhibition of HCV 1b replication in presence of 40% human serum; type: functional, organism-based, Hepatitis C virus subtype 1b
[6] = Cmax in rat at 5 mg/kg, po; type: ADME, organism-based; parameters: dose 5 mg/kg, route oral; conditions: in vivo
[7] = Ratio of drug level in liver to plasma in rat after 8 hrs; type: ADME, organism-based
[8] = Clearance in rat at 5 mg/kg, po; type: ADME, organism-based; parameters: dose 5 mg/kg, route oral; conditions: in vivo
[9] = Half life in rat at 5 mg/kg, po; type: ADME, organism-based; parameters: dose 5 mg/kg, route oral; conditions: in vivo
[10] = Bioavailability in rat at 5 mg/kg, po; type: ADME, organism-based; conditions: in vivo

Compound | IC50 [1] [nM] | IC50 [2] [nM] | further results
O=c1c(C2=NS(=O)(=O)c3ccccc3N2)c(O)c2cccnc2n1Cc1ccccc1 | 5800 |  | 
CC(C)CCn1c(=O)c(C2=Nc3ccc(NCC#N)cc3S(=O)(=O)N2)c(O)c2cccnc21 | 120 | 24 | 
CC(C)CCn1c(=O)c(C2=Nc3ccc(OCc4ccccc4)cc3S(=O)(=O)N2)c(O)c2cccnc21 |  | 1490 | 
CC(C)CCn1c(=O)c(C2=Nc3ccc(NS(=O)(=O)c4ccccc4)cc3S(=O)(=O)N2)c(O)c2cccnc21 | 41 | 7 | EC50 (Hepatitis C virus [4]): 1690 nM
COc1ccc2c(c1)S(=O)(=O)NC(c1c(O)c3cccnc3n(Cc3ccccc3)c1=O)=N2 | 8310 | 76 | 
O=c1c(C2=NS(=O)(=O)c3cccc(O)c3N2)c(O)c2cccnc2n1Cc1ccccc1 | 8370 | 54 | 
O=c1c(C2=NS(=O)(=O)c3ccc(O)cc3N2)c(O)c2cccnc2n1Cc1ccccc1 |  | 2510 | 
Cc1ccc2c(c1)S(=O)(=O)NC(c1c(O)c3cccnc3n(Cc3ccccc3)c1=O)=N2 | 25700 | 230 | 
CCCCS(=O)(=O)Nc1ccc2c(c1)S(=O)(=O)NC(c1c(O)c3cccnc3n(CCC(C)C)c1=O)=N2 | 22 | 5 | EC50 (Hepatitis C virus [4]): 1000 nM
O=c1c(C2=NS(=O)(=O)c3cccc(Br)c3N2)c(O)c2cccnc2n1Cc1ccccc1 | 6200 | 1170 | 
COc1ccc2c(c1)N=C(c1c(O)c3cccnc3n(Cc3ccccc3)c1=O)NS2(=O)=O |  | 3900 | 
COc1cccc2c1NC(c1c(O)c3cccnc3n(Cc3ccccc3)c1=O)=NS2(=O)=O | 18000 | 2120 | 
COc1cccc2c1N=C(c1c(O)c3cccnc3n(CCC(C)C)c1=O)NS2(=O)=O | 17600 | 1170 | 
O=c1c(C2=Nc3ccc(Br)cc3S(=O)(=O)N2)c(O)c2cccnc2n1Cc1ccccc1 | 16800 | 756 | 
Cc1cccc2c1N=C(c1c(O)c3cccnc3n(Cc3ccccc3)c1=O)NS2(=O)=O | 6700 | 96 | 

More lines, main results first:

IC50 [1] [nM] | IC50 [2] [nM] | Compound | further results
810 | 41 | CC(C)CCn1c(=O)c(C2=NS(=O)(=O)c3ccccc3N2)c(O)c2cccnc21 | 
934 | 70 | CC(C)CCn1c(=O)c(C2=NS(=O)(=O)c3cc(OCC(=O)N(C)C)ccc3N2)c(O)c2cccnc21 | 
2 |  | CC(C)CCn1c(=O)c(C2=NS(=O)(=O)c3cc(NS(C)(=O)=O)ccc3N2)c(O)c2cccnc21 | fraction unbound [3]: < 0.01; EC50 (Hepatitis C virus [4]): 3 nM; EC50 (Hepatitis C virus [5]): 1310 nM
8 | 3 | CC(C)CCn1c(=O)c(C2=NS(=O)(=O)c3cc(NS(=O)(=O)C(C)C)ccc3N2)c(O)c2cccnc21 | EC50 (Hepatitis C virus [4]): 110 nM
46 | 16 | CC(C)CCn1c(=O)c(C2=Nc3ccc(OCC(N)=O)cc3S(=O)(=O)N2)c(O)c2cccnc21 | fraction unbound [3]: < 0.01; Cmax [6]: 180 nM; EC50 (Hepatitis C virus [4]): 78 nM; Kp at 8 h [7]: 54; EC50 (Hepatitis C virus [5]): 2740 nM; CL/F [8]: 12.3 mL/min/kg; half-life [9]: 120 min; bioavailability [10]: 35%
367 | 57 | CC(C)CCn1c(=O)c(C2=NS(=O)(=O)c3cc(OCC(=O)O)ccc3N2)c(O)c2cccnc21 | 
310 | 23 | CC(C)CCn1c(=O)c(C2=Nc3ccc(N)cc3S(=O)(=O)N2)c(O)c2cccnc21 | EC50 (Hepatitis C virus [4]): 480 nM
1620 | 930 | CCCOc1ccc2c(c1)S(=O)(=O)NC(c1c(O)c3cccnc3n(CCC(C)C)c1=O)=N2 | 
5000 | 850 | CC(C)CCn1c(=O)c(C2=Nc3ccc(OCC(=O)OC(C)(C)C)cc3S(=O)(=O)N2)c(O)c2cccnc21 | 
1130 | 65 | COc1ccc2c(c1)S(=O)(=O)N=C(c1c(O)c3cccnc3n(CCC(C)C)c1=O)N2 | 
906 | 70 | CC(C)CCn1c(=O)c(C2=NS(=O)(=O)c3cc(NC(=O)C(F)(F)F)ccc3N2)c(O)c2cccnc21 | 
390 | 42 | CC(C)CCn1c(=O)c(C2=NS(=O)(=O)c3cc(O)ccc3N2)c(O)c2cccnc21 | 
141 | 25 | CC(C)CCn1c(=O)c(C2=NS(=O)(=O)c3cc(OCC#N)ccc3N2)c(O)c2cccnc21 | 
470 | 34 | CC(C)CCn1c(=O)c(C2=Nc3ccc(NCC(N)=O)cc3S(=O)(=O)N2)c(O)c2cccnc21 | EC50 (Hepatitis C virus [4]): 450 nM
180 | 80 | CNC(=O)COc1ccc2c(c1)S(=O)(=O)NC(c1c(O)c3cccnc3n(CCC(C)C)c1=O)=N2 | 
637 | 51 | CC(C)CCn1c(=O)c(C2=Nc3ccc(OCCN)cc3S(=O)(=O)N2)c(O)c2cccnc21 | 
